As usually defined, the IC50 is the midpoint of a concentration-inhibition curve. Higher therefore signals a need for much substance.

Molecules are shown by their SMILES. “Also recorded” adds a separate entry of the source. Structures can show the parent of a compound that is named as a salt. Bounds are passed on as bounds.

The target in assay [1] is T1, Proton Pump (H^+,K^+-ATPase) (Sus scrofa, UniProt P19156).
T1 construct: gastric vesicles were isolated from porcine stomachs; from tissue; host or cells: porcine stomach (gastric vesicles)
Kind of assay: Inhibitory activity on proton pump (H+,K+-ATPase) activity, porcine gastric vesicles, malachite green readout. In kind it is biochemical. The following applies: for IC50: porcine gastric vesicles, pH 6.5, 8 mM KCl, 0.2 mM ATP; for inhibitory activity against proton pump activity: result in words. Put shortly: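 Porcine gastric vesicles (100 ng) preincubated 30 min at 37°C with […] valinomycin and compound (0.1% DMSO final) in 50 mM Tris-HEPES, 5 mM MgCl2, 8 mM KCl, pH 6.5, then 0.2 mM ATP for 20 min at 37°C. Released phosphate measured by malachite green at 620 nm; IC50 via nonlinear regression of % inhibition.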

The next assay deals with Pylorus-Ligated Rats. Put plainly: Inhibitory activity on basal gastric acid secretion in pylorus-ligated rats (Shay's rat model). The class given is in vivo, male Sprague Dawley (SD) rats. The following applies: for inhibition in vivo at 2 mg/kg: Rattus norvegicus, po, read-out: GERD (rat/mpk); for inhibitory activity against basal gastric acid secretion: result in words, pyloric-ligated rats. The protocol: Specifically, male Sprague Dawley (SD) rats (weighing 180-220 g) were fasted for 24 hours with only water, and then randomly assigned to groups (n=4-5) after measuring body weight. The negative control group was orally administered 10% dimethylsulfoxide (DMSO)/10% Cremophor EL/80% D.W. at 2 mL/kg, and the test group was orally administered the test compound at 2 mg/kg/2 mL. One hour after administration, the rats' abdominal cavity was incised under isoflurane anesthesia, the stomach was exposed, and the pylorus was ligated. Three hours after ligation, the test animals were sacrificed and the stomach contents were collected by laparotomy again. The contents were centrifuged (3,000 rpm, 10 min), and only the supernatant was separated to obtain gastric juice. Afterwards, gastric fluid volume measurement, gastric fluid pH measurement, NaOH titration, and total gastric acid secretion calculation (gastric fluid volume × 0.1 N NaOH titer × 100) were sequentially performed.

T1 sequence (P19156 2-1034 limits assumed): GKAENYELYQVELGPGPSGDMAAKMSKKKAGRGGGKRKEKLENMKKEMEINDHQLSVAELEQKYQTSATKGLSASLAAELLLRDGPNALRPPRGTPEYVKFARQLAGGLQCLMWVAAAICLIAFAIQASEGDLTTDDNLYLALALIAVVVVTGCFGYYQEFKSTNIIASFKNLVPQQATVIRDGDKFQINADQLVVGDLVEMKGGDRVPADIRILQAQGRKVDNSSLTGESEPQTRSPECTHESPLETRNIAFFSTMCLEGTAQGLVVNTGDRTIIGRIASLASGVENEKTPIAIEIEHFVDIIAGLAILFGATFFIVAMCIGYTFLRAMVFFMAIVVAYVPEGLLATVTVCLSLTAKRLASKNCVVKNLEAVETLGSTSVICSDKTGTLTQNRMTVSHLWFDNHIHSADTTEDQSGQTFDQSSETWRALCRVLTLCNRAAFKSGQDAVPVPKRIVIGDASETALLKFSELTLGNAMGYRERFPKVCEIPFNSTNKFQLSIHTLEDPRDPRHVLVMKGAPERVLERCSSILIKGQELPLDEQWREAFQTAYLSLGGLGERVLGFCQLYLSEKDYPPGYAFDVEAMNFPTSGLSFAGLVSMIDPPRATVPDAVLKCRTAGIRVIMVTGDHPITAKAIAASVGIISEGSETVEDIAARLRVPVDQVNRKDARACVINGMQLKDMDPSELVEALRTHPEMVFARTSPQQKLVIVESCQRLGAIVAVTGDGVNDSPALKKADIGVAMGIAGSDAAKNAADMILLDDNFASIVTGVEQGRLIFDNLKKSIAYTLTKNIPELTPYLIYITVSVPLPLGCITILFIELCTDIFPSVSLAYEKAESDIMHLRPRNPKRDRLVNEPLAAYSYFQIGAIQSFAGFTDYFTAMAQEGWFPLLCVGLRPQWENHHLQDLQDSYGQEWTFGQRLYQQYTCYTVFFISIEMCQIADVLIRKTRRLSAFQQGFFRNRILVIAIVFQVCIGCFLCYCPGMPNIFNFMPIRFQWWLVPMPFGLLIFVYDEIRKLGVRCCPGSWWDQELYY
T1 sequence (P18434 whole entry partner): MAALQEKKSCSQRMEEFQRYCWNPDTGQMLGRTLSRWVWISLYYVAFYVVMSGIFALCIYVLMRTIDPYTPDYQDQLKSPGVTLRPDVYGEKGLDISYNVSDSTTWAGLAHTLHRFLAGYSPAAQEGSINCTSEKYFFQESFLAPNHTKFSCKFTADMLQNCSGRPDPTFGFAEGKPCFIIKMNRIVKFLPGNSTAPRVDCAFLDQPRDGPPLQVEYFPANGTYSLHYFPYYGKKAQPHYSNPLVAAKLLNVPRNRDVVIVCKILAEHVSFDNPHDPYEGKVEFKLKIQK

With `Cc1cccc(C)c1CNc1cc(N2C(=O)CNC2=O)cn2c(C)c(C)nc12` [Example 60, 3-(8-((2,6-dimethylbenzyl)amino)-2,3-dimethylimidazo[1,2-a]pyridin-6-yl)imidazolidine-2,4-dione], in assay [1], the IC50 is < 50 nM and the “inhibitory activity against proton pump activity” value is listed as “excellent inhibitory properties”. The inhibition in vivo at 2 mg/kg in the assay with Pylorus-Ligated Rats is ≥ 90%. For the same compound, the “inhibitory activity against basal gastric acid secretion” value in the assay with Pylorus-Ligated Rats (2 mg/kg oral) is “inhibitory activity”.

Turning to `Cc1cc(F)cc(C)c1CNc1cc(NC(=O)CO)cn2c(C)c(C)nc12.O=C(O)CC(O)(CC(=O)O)C(=O)O` [Example 86, N-(8-((4-fluoro-2,6-dimethylbenzyl)amino)-2,3-dimethylimidazo[1,2-a]pyridin-6-yl)-2-hydroxyacetamide citrate], the IC50 in assay [1] was < 50 nM. The inhibition in vivo at 2 mg/kg in the assay with Pylorus-Ligated Rats was ≥ 90%. For the same compound, the “inhibitory activity against basal gastric acid secretion” value in the assay with Pylorus-Ligated Rats (2 mg/kg oral) was “inhibitory activity”.

`Cc1cccc(C)c1CNc1cc(NC(=O)CCO)cn2c(C)c(C)nc12.O=C(O)CC(O)(CC(=O)O)C(=O)O` [Example 102, N-(8-((2,6-dimethylbenzyl)amino)-2,3-dimethylimidazo[1,2-a]pyridin-6-yl)-3-hydroxypropanamide citrate]: the IC50 in assay [1] was < 50 nM. The inhibition in vivo at 2 mg/kg with Pylorus-Ligated Rats is ≥ 90%. In addition, in the assay on Pylorus-Ligated Rats (2 mg/kg oral), the “inhibitory activity against basal gastric acid secretion” value is “inhibitory activity”. `Cc1cc(F)cc(C)c1CNc1cc(NC(=O)CCO)cn2c(C)c(C)nc12.O=C(O)CC(O)(CC(=O)O)C(=O)O` [Example 101, N-(8-((4-fluoro-2,6-dimethylbenzyl)amino)-2,3-dimethylimidazo[1,2-a]pyridin-6-yl)-3-hydroxypropanamide citrate]: in assay [1], the IC50 is < 50 nM. For the same compound, the inhibition in vivo at 2 mg/kg in the assay with Pylorus-Ligated Rats fell in the range of 70 to 80%. Besides, the “inhibitory activity against basal gastric acid secretion” value in the assay with Pylorus-Ligated Rats (2 mg/kg oral, citrate, 2 mg/kg) was “inhibitory activity; also recorded: somewhat reduced”. On to `CC(=O)Nc1cc(NCc2c(C)cccc2C)c2nc(C)c(C)n2c1` [Example 4, N-(8-((2,6-dimethylbenzyl)amino)-2,3-dimethylimidazo[1,2-a]pyridin-6-yl)acetamide], for which, in assay [1], the IC50 is < 50 nM and the “inhibitory activity against proton pump activity” value is “excellent inhibitory properties”. Also, in the assay on Pylorus-Ligated Rats, the inhibition in vivo at 2 mg/kg is ≥ 90%. The “inhibitory activity against basal gastric acid secretion” value in the assay on Pylorus-Ligated Rats (2 mg/kg oral) is on record as “inhibitory activity”. Take `COCC(=O)Nc1cc(NCc2c(C)cc(F)cc2C)c2nc(C)c(C)n2c1.O=C(O)CC(O)(CC(=O)O)C(=O)O` [Example 100, N-(8-((4-fluoro-2,6-dimethylbenzyl)amino)-2,3-dimethylimidazo[1,2-a]pyridin-6-yl)-2-methoxyacetamide citrate]: the IC50 in assay [1] was < 50 nM. Further, the inhibition in vivo at 2 mg/kg in the assay with Pylorus-Ligated Rats is ≥ 90%. The “inhibitory activity against basal gastric acid secretion” value with Pylorus-Ligated Rats (2 mg/kg oral) is given as “inhibitory activity”.

For `CC(=O)Nc1cc(NCc2c(C)cc(F)cc2C)c2nc(C)c(C)n2c1.Cl` [Example 45, N-(8-((4-fluoro-2,6-dimethylbenzyl)amino)-2,3-dimethylimidazo[1,2-a]pyridin-6-yl)acetamide hydrochloride], the “GERD (rat/mpk)” value in the assay on Pylorus-Ligated Rats (% inhibitory activity on total gastric acid secretion, 2 mg/kg oral, pylorus ligated 1 h after administration, stomach contents collected 3 h after ligation) is given as “A (A≥90%)”. Also, in the assay with Pylorus-Ligated Rats (2 mg/kg oral), the “inhibitory activity against basal gastric acid secretion” value was “inhibitory activity”. `Cc1cccc(C)c1CNc1cc(NC(=O)NCCC(=O)O)cn2c(C)c(C)nc12` [Example 71, 3-(3-(8-((2,6-dimethylbenzyl)amino)-2,3-dimethylimidazo[1,2-a]pyridin-6-yl)ureido)propionic acid citrate] had an IC50 in assay [1] of 100 to 500 nM. With `Cc1cc(F)cc(C)c1CNc1cc(NC(=O)N2CCC2)cn2c(C)c(C)nc12` [Example 51, N-(8-((4-fluoro-2,6-dimethylbenzyl)amino)-2,3-dimethylimidazo[1,2-a]pyridin-6-yl)azetidine-1-carboxamide citrate], the IC50 in assay [1] was < 50 nM.

Consider `Cc1cccc(C)c1CNc1cc(NC(=O)CCNC(=O)CO)cn2c(C)c(C)nc12` [Example 119, N-(8-((2,6-dimethylbenzyl)amino)-2,3-dimethylimidazo[1,2-a]pyridin-6-yl)-3-(2-hydroxyacetamido)propanamide], for which the IC50 in assay [1] lay in the range of 50 to 100 nM. The same measure, in the same setting: with `Cc1cccc(C)c1CNc1cc(NC(=O)NCC(=O)N(C)C)cn2c(C)c(C)nc12` [Example 48, 2-(3-(8-((2,6-dimethylbenzyl)amino)-2,3-dimethylimidazo[1,2-a]pyridin-6-yl)ureido)-N,N-dimethylacetamide hydrochloride] the figure was 50 to 100 nM; with `Cc1cccc(C)c1CNc1cc(NC(=O)C2CCCC2)cn2c(C)c(C)nc12` [Example 1, N-(8-((2,6-dimethylbenzyl)amino)-2,3-dimethylimidazo[1,2-a]pyridin-6-yl)cyclopentanecarboxamide], 100 to 500 nM. In assay [1], `Cc1cc(F)cc(C)c1CNc1cc(NC(=O)[C@@H]2CCN2)cn2c(C)c(C)nc12` [Example 65, (S)-N-(8-((4-fluoro-2,6-dimethylbenzyl)amino)-2,3-dimethylimidazo[1,2-a]pyridin-6-yl)azetidine-2-carboxamide hydrochloride] showed an IC50 of 50 to 100 nM.

For `Cc1cc(F)cc(C)c1CNc1cc(NC(=O)CN)cn2c(C)c(C)nc12.Cl` [Example 64, 2-amino-N-(8-((4-fluoro-2,6-dimethylbenzyl)amino)-2,3-dimethylimidazo[1,2-a]pyridin-6-yl)acetamide hydrochloride], in assay [1], the IC50 was < 50 nM and the “inhibitory activity against proton pump activity” value was “excellent inhibitory properties”. Consider `Cc1cccc(C)c1CNc1cc(NC(=O)[C@@H]2CCNC2)cn2c(C)c(C)nc12` [Example 89, (R)-N-(8-((2,6-dimethylbenzyl)amino)-2,3-dimethylimidazo[1,2-a]pyridin-6-yl)pyrrolidine-3-carboxamide hydrochloride], for which the IC50 in assay [1] fell in the range of 50 to 100 nM. Still for that read-out and setting: under `Cc1cccc(C)c1CNc1cc(N2C(=O)NCCNC2=O)cn2c(C)c(C)nc12` [Example 72, 3-(8-((2,6-dimethylbenzyl)amino)-2,3-dimethylimidazo[1,2-a]pyridin-6-yl)-1,3,5-triazepane-2,4-dione] stands 100 to 500 nM; under `Cc1cccc(C)c1CNc1cc(NC(=O)NCC2CC2)cn2c(C)c(C)nc12` [Example 30, 1-(cyclopropylmethyl)-3-(8-((2,6-dimethylbenzyl)amino)-2,3-dimethylimidazo[1,2-a]pyridin-6-yl)urea hydrochloride], 100 to 500 nM. Consider `CC(=O)OC1(C(=O)Nc2cc(NCc3c(C)cc(F)cc3C)c3nc(C)c(C)n3c2)CC1` [Example 113, 1-((8-((4-fluoro-2,6-dimethylbenzyl)amino)-2,3-dimethylimidazo[1,2-a]pyridin-6-yl)carbamoyl)cyclopropyl acetate], for which the 50% inhibitory concentration (IC50) in assay [1] lay within 100 to 500 nM.

As to `Cc1cccc(C)c1CNc1cc(N2CCC2=O)cn2c(C)c(C)nc12` [Example 28, 1-(8-((2,6-dimethylbenzyl)amino)-2,3-dimethylimidazo[1,2-a]pyridin-6-yl)azetidin-2-one], the IC50 in assay [1] is > 500 nM.

Take `COC(=O)CNC(=O)Nc1cc(NCc2c(C)cccc2C)c2nc(C)c(C)n2c1` [Example 46, hydrochloride]: the IC50 in assay [1] was 50 to 100 nM. The same measure, in the same setting: under `Cc1cccc(C)c1CNc1cc(NC(=O)c2ccccc2)cn2c(C)c(C)nc12` [Example 104, N-(8-((2,6-dimethylbenzyl)amino)-2,3-dimethylimidazo[1,2-a]pyridin-6-yl)benzamide citrate] stands 100 to 500 nM; under `Cc1cccc(C)c1CNc1cc(NC(=O)C[C@H]2CCN2)cn2c(C)c(C)nc12` [Example 76, (R)-2-(azetidin-2-yl)-N-(8-((2,6-dimethylbenzyl)amino)-2,3-dimethylimidazo[1,2-a]pyridin-6-yl)acetamide hydrochloride], 50 to 100 nM. The same measure, in the same setting: with `Cc1cccc(C)c1CNc1cc(NC(=O)N[C@H]2CCc3ccccc32)cn2c(C)c(C)nc12` [Example 78, (S)-1-(2,3-dihydro-1H-inden-1-yl)-3-(8-((2,6-dimethylbenzyl)amino)-2,3-dimethylimidazo[1,2-a]pyridin-6-yl)urea hydrochloride] the figure was 100 to 500 nM; with `CNC(=O)CNC(=O)Nc1cc(NCc2c(C)cccc2C)c2nc(C)c(C)n2c1` [Example 47, 2-(3-(8-((2,6-dimethylbenzyl)amino)-2,3-dimethylimidazo[1,2-a]pyridin-6-yl)ureido)-N-methylacetamide hydrochloride], 50 to 100 nM. Still for that read-out and setting: under `Cc1cccc(C)c1CNc1cc(NC(=O)[C@H]2CCCN(C(=O)CO)C2)cn2c(C)c(C)nc12` [Example 120, (S)-N-(8-((2,6-dimethylbenzyl)amino)-2,3-dimethylimidazo[1,2-a]pyridin-6-yl)-1-(2-hydroxyacetyl)piperidine-3-carboxamide] stands 100 to 500 nM.

`CCN(C)C(=O)Nc1cc(NCc2c(C)cccc2C)c2nc(C)c(C)n2c1` [Example 32, 3-(8-((2,6-dimethylbenzyl)amino)-2,3-dimethylimidazo[1,2-a]pyridin-6-yl)-1-ethyl-1-methylurea hydrochloride] registered an IC50 in assay [1] of 50 to 100 nM.
